Results: ChEMBL document CHEMBL2146469, “Mechanisms involved in the antinociceptive effects of 7-hydroxycoumarin” (J Nat Prod, 2011)
Calls of active or inactive are those of the source.

Experiments:
[1] = species: Mus musculus; details: Swiss, 5 mg/kg
Description: Inhibition of carrageenan-induced PGE2 production in Swiss mouse at 5 mg/kg, po dosed 45 mins before carrageenan dosing measured 3 hrs post carrageenan challenge by ELISA

[2] = test system: Mus musculus; assay: Antinociceptive activity in Swiss mouse inflammatory pain model assessed as reduction in hyperalgesia at 0.5 mg/kg, sc dosed once daily for 7 days dosed 45 mins before carrageenan dosing measured 3 hrs post carrageenan challenge; format: functional, organism-based; parameters: dose 0.5 mg/kg
[3] = test system: Mus musculus; assay: Antinociceptive activity in Swiss mouse inflammatory pain model assessed as reduction in paw edema at 2 mg/kg, sc dosed once daily for 7 days dosed 45 mins before complete Freund's adjuvant dosing measured post complete Freund's adjuvant challenge; format: functional, organism-based; parameters: dose 2 mg/kg
[4] = test system: Mus musculus; assay: Inhibition of complete Freund's adjuvant-induced neutrophil migration to paw tissue in Swiss mouse at 2 mg/kg, sc dosed 45 mins before complete Freund's adjuvant dosing measured 3 to 4 hrs post complete Freund's adjuvant challenge by myeloperoxidase kinetic colorimetric assay; format: functional, organism-based; parameters: dose 2 mg/kg
[5] = test system: Mus musculus; assay: Antinociceptive activity in Swiss mouse inflammatory pain model assessed as reduction in paw withdrawal response at 2 mg/kg, sc dosed once daily for 7 days dosed 45 mins before complete Freund's adjuvant dosing measured post complete Freund's adjuvant challenge; format: functional, organism-based; parameters: dose 2 mg/kg
[6] = test system: Mus musculus; assay: Inhibition of carrageenan-induced neutrophil migration to paw tissue in Swiss mouse at 2 mg/kg, sc dosed 45 mins before carrageenan dosing measured 3 to 4 hrs post […] challenge by myeloperoxidase kinetic colorimetric assay; format: functional, organism-based; parameters: dose 2 mg/kg
[7] = test system: Mus musculus; assay: Inhibition of complete Freund's adjuvant-induced IL-1beta production in Swiss mouse at 2 mg/kg, sc dosed 45 mins before complete Freund's adjuvant dosing measured up to 24 hrs post complete Freund's adjuvant challenge by ELISA; format: functional, organism-based; parameters: dose 2 mg/kg
[8] = test system: Mus musculus; assay: Antinociceptive activity in Swiss mouse inflammatory pain model assessed as reduction in mechanical hyperalgesia at 2 mg/kg, sc dosed 45 mins before complete Freund's adjuvant dosing measured 4 to 24 hrs post complete Freund's adjuvant challenge by electronic pressure-meter test; format: functional, organism-based; parameters: dose 2 mg/kg
[9] = test system: Mus musculus; assay: Inhibition of complete Freund's adjuvant-induced TNFalpha production in Swiss mouse at 2 mg/kg, sc dosed 45 mins before complete Freund's adjuvant dosing measured up to 2 hrs post complete Freund's adjuvant challenge by ELISA; format: functional, organism-based; parameters: dose 2 mg/kg
[10] = test system: Mus musculus; assay: Antinociceptive activity in Swiss mouse inflammatory pain model assessed as reduction in hyperalgesia at 160 ug/paw dosed 45 mins before PGE2 dosing measured 3 hrs post PGE2 challenge; format: functional, organism-based
[11] = test system: Mus musculus; assay: Gastric toxicity in Swiss mouse assessed as edema index at 10 mg/kg administered as single dose (reference value: 0.6 +/- 0.2 edema index); format: organism-based; parameters: dose 10 mg/kg; details: in vivo
[12] = test system: Mus musculus; assay: Gastric toxicity in Swiss mouse assessed as erosion index at 10 mg/kg administered as single dose (reference value: 0 +/- 0 erosion index); format: organism-based; parameters: dose 10 mg/kg; details: in vivo
[13] = test system: Mus musculus; assay: Gastric toxicity in Swiss mouse assessed as necrosis index at 10 mg/kg administered as single dose (reference value: 0 +/- 0 necrosis index); format: organism-based; parameters: dose 10 mg/kg; details: in vivo
[14] = test system: Mus musculus; assay: Gastric toxicity in Swiss mouse assessed as inflammatory cell index at 10 mg/kg administered as single dose (reference value: 0.2 +/- 0.2 inflammatory cell index); format: organism-based; parameters: dose 10 mg/kg; details: in vivo
[15] = test system: Mus musculus; assay: Toxicity in Swiss mouse assessed as creatinine level at 60 mg/kg, po dosed once daily for 7 days (reference value: 0.26 +/- 0.05 mg/dL); format: organism-based; parameters: dose 60 mg/kg, route oral; details: in vivo, 168 h
[16] = test system: Mus musculus; assay: Antinociceptive activity in Swiss mouse inflammatory pain model assessed as reduction in hyperalgesia at 60 mg/kg, po dosed once daily for 7 days dosed 45 mins before PGE2 dosing measured 3 hrs post PGE2 challenge; format: functional, organism-based; parameters: dose 60 mg/kg
[17] = test system: Mus musculus; assay: Inhibition of complete Freund's adjuvant-induced TNFalpha production in Swiss mouse at 60 mg/kg, po dosed 45 mins before complete Freund's adjuvant dosing measured up to 2 hrs post complete Freund's adjuvant challenge by ELISA; format: functional, organism-based; parameters: dose 60 mg/kg
[18] = test system: Mus musculus; assay: Antinociceptive activity in Swiss mouse inflammatory pain model assessed as reduction in hyperalgesia at 60 mg/kg, po dosed once daily for 7 days dosed 45 mins before carrageenan dosing measured 3 hrs post carrageenan challenge; format: functional, organism-based; parameters: dose 60 mg/kg
[19] = test system: Mus musculus; assay: Toxicity in Swiss mouse assessed as liver weight changes per 10 gram of body weight at 60 mg/kg, po dosed once daily for 7 days (reference value: 0.73 +/- 0.07 g/10 g body weight); format: organism-based; parameters: dose 60 mg/kg, route oral; details: in vivo, 168 h
[20] = test system: Mus musculus; assay: Antinociceptive activity in Swiss mouse inflammatory pain model assessed as reduction in paw edema at 60 mg/kg, po dosed once daily for 7 days dosed 45 mins before complete Freund's adjuvant dosing measured post complete Freund's adjuvant challenge; format: functional, organism-based; parameters: dose 60 mg/kg
[21] = test system: Mus musculus; assay: Antinociceptive activity in Swiss mouse inflammatory pain model assessed as reduction in hyperalgesia at 120 mg/kg, po dosed once daily for 7 days dosed 45 mins before PGE2 dosing measured 3 hrs post PGE2 challenge; format: functional, organism-based; parameters: dose 120 mg/kg
[22] = test system: Mus musculus; assay: Inhibition of complete Freund's adjuvant-induced IL-1beta production in Swiss mouse at 60 mg/kg, po dosed 45 mins before complete Freund's adjuvant dosing measured up to 24 hrs post complete Freund's adjuvant challenge by ELISA; format: functional, organism-based; parameters: dose 60 mg/kg
[23] = test system: Mus musculus; assay: Toxicity in Swiss mouse assessed as heart weight changes per 10 gram of body weight at 60 mg/kg, po dosed once daily for 7 days (reference value: 0.05 +/- 0.00 g/10 g body weight); format: organism-based; parameters: dose 60 mg/kg, route oral; details: in vivo, 168 h
[24] = test system: Mus musculus; assay: Toxicity in Swiss mouse assessed as AST level at 60 mg/kg, po dosed once daily for 7 days (reference value: 145.7 +/- 23.4 UI/L); format: organism-based; parameters: dose 60 mg/kg, route oral; details: in vivo, 168 h
[25] = test system: Mus musculus; assay: Antinociceptive activity in Swiss mouse inflammatory pain model assessed as reduction in mechanical hyperalgesia at 30 to 120 mg/kg, po dosed 45 mins before complete Freund's adjuvant dosing measured 24 hrs post complete Freund's adjuvant challenge by electronic pressure-meter test; format: functional, organism-based
[26] = test system: Mus musculus; assay: Gastric toxicity in Swiss mouse assessed as inflammatory cell index at 60 mg/kg administered daily with single dose (reference value: 0.2 +/- 0.2 inflammatory cell index); format: organism-based; parameters: dose 60 mg/kg; details: in vivo
[27] = test system: Mus musculus; assay: Toxicity in Swiss mouse assessed as total leukocytes level at 60 mg/kg, po dosed once daily for 7 days (reference value: 5.9 +/- 0.8 10^3/mL); format: organism-based; parameters: dose 60 mg/kg, route oral; details: in vivo, 168 h
[28] = test system: Mus musculus; assay: Effect on baseline nociceptive threshold in Swiss mouse inflammatory pain model at 30 to 120 mg/kg, po dosed 45 mins before complete Freund's adjuvant dosing measured 4 to 24 hrs post complete Freund's adjuvant challenge by electronic pressure-meter test; format: functional, organism-based
[29] = test system: Mus musculus; assay: Inhibition of complete Freund's adjuvant-induced neutrophil migration to paw tissue in Swiss mouse at 60 mg/kg, po dosed 45 mins before complete Freund's adjuvant dosing measured 3 to 4 hrs post complete Freund's adjuvant challenge by myeloperoxidase kinetic colorimetric assay; format: functional, organism-based; parameters: dose 60 mg/kg
[30] = test system: Mus musculus; assay: Antinociceptive activity in Swiss mouse inflammatory pain model assessed as reduction in paw withdrawal response at 60 mg/kg, po dosed once daily for 7 days dosed 45 mins before complete Freund's adjuvant dosing measured 2 days post compound withdrawal; format: functional, organism-based; parameters: dose 60 mg/kg
[31] = test system: Mus musculus; assay: Antinociceptive activity in Swiss mouse inflammatory pain model assessed as reduction in mechanical hyperalgesia at 30 to 120 mg/kg, po dosed 45 mins before complete Freund's adjuvant dosing measured 6 hrs post complete Freund's adjuvant challenge by electronic pressure-meter test; format: functional, organism-based
[32] = test system: Mus musculus; assay: Gastric toxicity in Swiss mouse assessed as erosion index at 60 mg/kg administered daily with single dose (reference value: 0 +/- 0 erosion index); format: organism-based; parameters: dose 60 mg/kg; details: in vivo
[33] = test system: Mus musculus; assay: Inhibition of carrageenan-induced neutrophil migration to paw tissue in Swiss mouse at 60 mg/kg, po dosed 45 mins before carrageenan dosing measured 3 to 4 hrs post […] challenge by myeloperoxidase kinetic colorimetric assay; format: functional, organism-based; parameters: dose 60 mg/kg
[34] = test system: Mus musculus; assay: Toxicity in Swiss mouse assessed as kidney weight changes per 10 gram of body weight at 60 mg/kg, po dosed once daily for 7 days (reference value: 0.06 +/- 0.00 g/10 g body weight); format: organism-based; parameters: dose 60 mg/kg, route oral; details: in vivo, 168 h
[35] = test system: Mus musculus; assay: Gastric toxicity in Swiss mouse assessed as necrosis index at 60 mg/kg administered daily with single dose (reference value: 0 +/- 0 necrosis index); format: organism-based; parameters: dose 60 mg/kg; details: in vivo
[36] = test system: Mus musculus; assay: Antinociceptive activity in Swiss mouse inflammatory pain model assessed as reduction in paw withdrawal response at 60 mg/kg, po dosed once daily for 7 days dosed 45 mins before complete Freund's adjuvant dosing measured post complete Freund's adjuvant challenge; format: functional, organism-based; parameters: dose 60 mg/kg
[37] = test system: Mus musculus; assay: Toxicity in Swiss mouse assessed as corporal mass changes at 60 mg/kg, po dosed once daily for 7 days (reference value: 0.58 +/- 0.03 g); format: organism-based; parameters: dose 60 mg/kg, route oral; details: in vivo, 168 h
[38] = test system: Mus musculus; assay: Inhibition of carrageenan-induced PGE2 production in Swiss mouse at 60 mg/kg, po dosed 45 mins before carrageenan dosing measured 3 hrs post carrageenan challenge by ELISA; format: functional, organism-based; parameters: dose 60 mg/kg
[39] = test system: Mus musculus; assay: Gastric toxicity in Swiss mouse assessed as edema index at 60 mg/kg administered daily with single dose (reference value: 0.6 +/- 0.2 edema index); format: organism-based; parameters: dose 60 mg/kg; details: in vivo
[40] = test system: Mus musculus; assay: Toxicity in Swiss mouse assessed as ALT level at 60 mg/kg, po dosed once daily for 7 days (reference value: 68.0 +/- 12.8 UI/L); format: organism-based; parameters: dose 60 mg/kg, route oral; details: in vivo, 168 h
[41] = test system: Mus musculus; assay: Antinociceptive activity in Swiss mouse inflammatory pain model assessed as reduction in mechanical hyperalgesia at 30 to 120 mg/kg, po dosed 45 mins before complete Freund's adjuvant dosing measured 2 hrs post complete Freund's adjuvant challenge by electronic pressure-meter test; format: functional, organism-based

SMILES: CS(=O)(=O)Nc1ccc([N+](=O)[O-])cc1Oc1ccccc1
- inhibition [1]: Active

SMILES: C[C@@H]1C[C@H]2[C@@H]3CCC4=CC(=O)C=C[C@]4(C)[C@@]3(F)[C@@H](O)C[C@]2(C)[C@@]1(O)C(=O)CO
- Activity [2]: Active
- Activity [3]: Active
- inhibition [4]: Active
- Activity [5]: Active
- inhibition [6]: Active
- inhibition [7]: Active
- Activity [8]: Active
- inhibition [9]: Active

SMILES: Cc1c(N(C)CS(=O)(=O)O)c(=O)n(-c2ccccc2)n1C
- Activity [10]: Active

SMILES: COc1ccc2c(c1)c(CC(=O)O)c(C)n2C(=O)c1ccc(Cl)cc1 [INDOMETHACIN]
- Activity [11]: 2.6
- Activity [12]: 3
- Activity [13]: 0
- Activity [14]: 4

SMILES: O=c1ccc2ccc(O)cc2o1 [UMBELLIFERONE]
- Activity [15]: 0.27 mg/dL
- Activity [16]: inactive
- inhibition [17]: Active
- Activity [18]: Active
- Activity [19]: 0.72 g
- Activity [20]: Active
- Activity [21]: inactive
- inhibition [22]: Active
- Activity [23]: 0.05 g
- Activity [24]: 115 IU/L
- Activity [25]: Dose-dependent effect
- Activity [26]: 0.4
- Activity [27]: 6.725 ×10³ /ml
- Activity [28]: inactive
- inhibition [29]: Active
- Activity [30]: inactive
- Activity [31]: Dose-dependent effect
- Activity [32]: 0
- inhibition [33]: Active
- Activity [34]: 0.07 g
- Activity [35]: 0
- Activity [36]: Active
- Activity [37]: 0.6 g
- inhibition [38]: Active
- Activity [39]: 0.7
- Activity [40]: 51 IU/L
- Activity [41]: Dose-dependent effect
